Data taken from patent US20040176471A1, “Novel chalcone derivatives and pharmaceutical compositions comprising the same” (KAOHSIUNG MEDICAL UNIVERSITY, priority 2003, published 2004).
Read-outs that look alike come from different tables or passages of the source.

Tests used:
rat neutrophils [1] = assay: Superoxide anion generation in neutrophils stimulated with fMLP/CB or PMA (cytochrome c reduction); format: cell-based; conditions: for inhibition / IC50: Neutrophil; for inhibition / IC50 / % of inhibition of superoxide anion generation at the highest concentration, fMLP/CB: rat neutrophils; for inhibition / % of inhibition of superoxide anion generation at the highest concentration, fMLP/CB: at the highest concentration (bound given in the source)
Protocol: Superoxide anion generation was measured in terms of superoxide dismutase-inhibitable cytochrome c reduction (M. Market et al. (1984), Methods Enzymol., 105, 358). Neutrophil suspension was preincubated with DMSO or a tested compound for 3 min, and then superoxide dismutase or Hank's balanced salt solution (HBSS) was added into the blank and test wells, respectively. The final volume of DMSO in the reaction mixture was≦0.5%. After addition of cytochrome c, reaction was initiated by challenge with formyl-Met-Leu-Phe (fMLP) (0.3 μM)/cytochalasin B (CB) (5 μg/mL) or phorbol myristate acetate (PMA) (3 nM). Thirty minutes later, the reaction was terminated by centrifugation and the absorbance changes of supernatant were monitored at 550 nm in a microplate reader. In the experiment, Trifluoperazine was used as a positive control

[2] = test system: rat peritoneal mast cells; assay: Mast cell degranulation stimulated with compound 48/80 (release of β-glucuronidase and histamine); format: cell-based; conditions: for IC50: Mast cell, compound 48/80 (10 μg/mL); for % of inhibition of Histamine release at the highest concentration / % of inhibition of β-Glucuronidase release at the highest concentration: compound 48/80, at the highest concentration (bound given in the source)
Protocol: Heparinized Tyrode's solution was injected into the peritoneal cavity of exsanguinated rat (Sprague-Dawley, 250-300 g, 10-12 weeks old). […] Cell pellets were washed and suspended in Tyrode's solution with 0.1% BSA to 1×10^6 cells/mL. Cell suspension was then preincubated at 37° C. with DMSO or a tested compound for 5 min. The final volume of DMSO in the reaction mixture was≦0.5%. […] After treatment of the cell suspension with Triton X-100, the total content of β-glucuronidase and histamine was measured, and the percentage release was calculated. In the experiment, Mepacrine was used as a positive control.

rat neutrophils [3] = assay: Neutrophil degranulation stimulated with fMLP/CB (release of β-glucuronidase and lysozyme); format: cell-based; conditions: for IC50: Neutrophil, fMLP (1 μM)/CB (5 μg/mL)
Protocol: Blood was withdrawn from rat (Sprague-Dawley, 250-300 g, 10-12 weeks old) and mixed with EDTA. […] Cell suspension was preincubated at 37° C. with DMSO or drugs for 10 min, and then challenged with fMLP (1 μM)/CB (5 μg/mL). The final volume of DMSO in the reaction mixture was≦0.5%. […] After treatment of the cell suspension with Triton X-100, the total content of lysozyme and β-glucuronidase was measured and the percentage release was calculated. In the experiment, Trifluoperazine was used as a positive control.

N9 cells = assay: NO production (nitrite accumulation, Griess reaction) in LPS/IFN-γ-stimulated microglial cells; format: cell-based, murine; conditions: for IC50: LPS (10 ng/mL)/IFN-γ (10 unit/mL), 24 hrs, read-out: IC50, accumulation of NO2− in culture media, N9 cells; for % of inhibition of NO2− accumulation at the highest concentration, N9 cells: LPS/IFN-γ, at the highest concentration (bound given in the source)
Protocol: Cells of murine microglial cell line N9 (kindly provided by Dr. P. Ricciardi-Castagnoli, CNR Cellular and Molecular Pharmacology Center, Italy) (S. B. Corradin et al. (1993), Glia, 7, 255-262) were suspended in Iscove's Modified Dulbecco's medium containing 5% heat-inactivated FCS and antibiotics and then plated into 96-well tissue-culture plates at 8×10^4 cells/200 μL per well. The cells were treated with DMSO or a tested compound at 37° C. for 1 hr, followed by stimulation with LPS (10 ng/mL)/IFN-γ (10 unit/mL) for 24 hrs. Thereafter, the medium in each well was collected and stored at −70° C. until use. The final volume of DMSO in the reaction mixture was<0.5%
(§1) The production of NO in cell medium was determined by measuring the content of nitrite based on the Griess reaction (L. Mingghetti et at (1997), Glia, 19, 152-160). Briefly, 40 μL of 5 mM sulfanilamide, 10 μL of 2 M HCl, and 20 μL of 40 mM naphthylethylenediamine were added into 150 μL culture medium in sequence. After 10 min of incubation at room temperature, absorbance was measured at 550 nm in a microplate reader. A standard nitrite curve was generated in the same fashion, using NaNO2.

RAW 264.7 cells = assay: NO production (nitrite accumulation, Griess reaction) in LPS-stimulated macrophage-like cells; format: cell-based, mouse; conditions: for suppression of LPS-induced NO production in RAW 264.7 cells (in words) / IC50: LPS (1 μg/mL), 24 hrs; for IC50: read-out: IC50, accumulation of NO2− in culture media, RAW 264.7 cells; for % of inhibition of NO2− accumulation at the highest concentration, RAW 264.7 cells: LPS, at the highest concentration (bound given in the source)
Protocol: RAW 264.7 mouse macrophage-like cell line (American Type Culture Collection (ATCC), PO Box 1549, Manassas, Va. 20108 USA) was plated in 96 well tissue-culture plates in Dulbecco's Modified Eagle Medium (DMEM) supplemented with 10% fetal calf serum (FCS), 100 units/ml of penicillin and streptomycin at 2×10^5 cells/200 μL per well. Cells were allowed to adhere overnight. The cells were treated with DMSO or a tested compound at 37° C. for 1 hr. followed by stimulation with 1 μg/mL of LPS (Escherichia coli, serotype 0111:B4) for 24 hrs. Thereafter, the medium in each well was collected and stored at −70° C. until use. The final volume of DMSO in the reaction mixture was≦0.5%.
as §1

[4] = PMA (3 nM), read-out: IC50, superoxide anion generation, PMA
[5] = fMLP (0.3 μM)/CB (5 μg/mL), read-out: IC50, superoxide anion generation, fMLP/CB
[6] = read-out: IG50, release of Histamine
[7] = read-out: IG50, release of β-Glucuronidase
[8] = rat neutrophils, read-out: IC50, release of Lysozyme
[9] = rat neutrophils, read-out: IC50, release of β-Glucuronidase
[10] = rat neutrophils, fMLP/CB, at the highest concentration (bound given in the source)

Row | SMILES | inhibition (rat neutrophils [1]; PMA (3 nM)) | IC50 (rat neutrophils [1]; [4]) | IC50 (rat neutrophils [1]; [5]) | IC50 [2, 6] | IC50 [2, 7] | % of inhibition of Histamine release at the highest concentration [2] | % of inhibition of β-Glucuronidase release at the highest concentration [2] | IC50 (rat neutrophils [3]; [8]) | IC50 (rat neutrophils [3]; [9]) | IC50 (N9 cells; Mus musculus, N9) | IC50 (RAW 264.7 cells; Mus musculus, RAW264.7) | melting point | % of inhibition of NO2− accumulation at the highest concentration, N9 cells (N9 cells) | % of inhibition of NO2− accumulation at the highest concentration, RAW 264.7 cells (RAW 264.7 cells) | also measured
1 | COc1ccc(OC)c(C(=O)/C=C/c2ccc(O)cc2)c1 [Compound 1, 2′,5′-Dimethoxy-4-hydroxychalcone] | 36.3% | > 30 µM | 19.5 ± 3.5 µM | > 30 µM | > 30 µM | 10.0 ± 5.1% | 8.3 ± 2.3% | 28.3 ± 1.9 µM | 20.6 ± 2 µM | 17.8 ± 0.2 µM | 14.6 ± 0.1 µM | 127 to 128 °C |  |  | suppression of LPS-induced NO production in RAW 264.7 cells (in words) (RAW 264.7 cells): suppressed
2 | COc1ccc(OC)c(C(=O)/C=C/c2ccc(Br)cc2)c1 [Compound 2, 4-Bromo-2′,5′-dimethoxychalcone] | 22.9% | > 30 µM | 8 ± 2.4 µM | > 30 µM | > 30 µM | 21.7 ± 1.5% | 28.6 ± 3.4% | 5.7 ± 0.3 µM | 5.6 ± 0.3 µM | > 10 µM | > 10 µM | 85 to 87 °C | −5.6 ± 1.1% | 8.9 ± 4.0% | 
3 | COc1ccc(OC)c(C(=O)/C=C/c2ccc(Cl)c(Cl)c2)c1 [Compound 3, 3,4Dichloro-2′,5′-dimethoxychalcone] | -27.1% | > 30 µM | 12.9 ± 0.4 µM | > 30 µM | > 30 µM | 35.2 ± 1.0% | 44.3 ± 2.3% | 5.1 ± 0.1 µM | 5 ± 0.3 µM | > 3 µM | > 3 µM | 121 to 123 °C | 4.3 ± 3.1% | 2.0 ± 3.1% | 
4 | O=C(/C=C/c1ccc(Cl)c(Cl)c1)c1cc(O)ccc1O [Compound 4, 3,4-Dichloro-2′,5′-dihydroxychalcone] | 21.9% | > 10 µM | 0.6 ± 0.2 µM |  |  |  |  |  |  | > 1 µM | > 1 µM | 171 to 174 °C | −10.3 ± 1.5% | −4.9 ± 1.9% | inhibitory effect on fMLP/CB-induced superoxide anion generation (in words) (rat neutrophils [1]): more potent than the positive control, trifluoperazine
5 | CCOc1ccc(OCC)c(C(=O)/C=C/c2ccc(Cl)c(Cl)c2)c1 [Compound 5, 3,4-Dichloro-2′,5′-diethoxychalcone] | 13.2% | > 30 µM | > 30 µM | > 30 µM | > 30 µM | 12.9 ± 7.9% | 5.5 ± 4.7% | > 30 µM | > 30 µM | 3.7 ± 0.1 µM | 4.9 ± 0.3 µM | 152 to 153 °C |  |  | inhibitory effect on fMLP/CB-induced superoxide anion generation (in words) (rat neutrophils [1]): not to have significant inhibitory effects; % of inhibition of superoxide anion generation at the highest concentration, fMLP/CB (rat neutrophils [1]): 32.4 ± 12.2%; inhibitory effect on neutrophil degranulation (in words) (rat neutrophils [3]; fMLP/CB): no significant inhibitory effects; % of inhibition of Lysozyme release at the highest concentration (rat neutrophils [3]; [10]): 27.1 ± 5.0%; % of inhibition of β-Glucuronidase release at the highest concentration (rat neutrophils [3]; [10]): 30.6 ± 4.1%; suppression of LPS-induced NO production in RAW 264.7 cells (in words) (RAW 264.7 cells): suppressed
6 | O=C(/C=C/c1ccsc1)c1cc(O)ccc1O [Compound 7, 2′,5′-Dihydroxy-3-thienylchalcone] | 23.5% | > 1 µM | > 1 µM |  |  |  |  |  |  | > 3 µM | > 3 µM | 156 to 157 °C | 10.6 ± 8.2% | 9.7 ± 2.9% | % of inhibition of superoxide anion generation at the highest concentration, fMLP/CB (rat neutrophils [1]): 43.4 ± 6.1%
7 | COC(=O)[C@@H](N)CCCNC(=N)N[N+](=O)[O-] [L-NAME, N^ω-nitro-L-arginine methyl ether, reference compound] |  |  |  |  |  |  |  |  |  |  |  |  |  |  | IC50 (N9 cells; positive control): 630 ± 10 µM; IC50 (RAW 264.7 cells; positive control): 510 ± 20 µM
8 | CCN(CC)CCCC(C)Nc1c2ccc(Cl)cc2nc2ccc(OC)cc12 (stereo not shown) [Mepacrine, reference compound] |  |  |  | 48.5 ± 3.8 µM | 32.2 ± 3.6 µM |  |  |  |  |  |  |  |  |  | 
9 | CN1CCN(CCCN2c3ccccc3Sc3ccc(C(F)(F)F)cc32)CC1 [Trifluoperazine, reference compound] |  | 9.7 ± 1.1 µM | 12.9 ± 1 µM |  |  |  |  | 18.3 ± 0.9 µM | 18.9 ± 2.1 µM |  |  |  |  |  | 
